Experimental data published in patent US20240174648A1, “Small Molecule Compound” (Technoderma Medicines Pte Ltd, priority 2019, published 2024).

Experiments:
Format in all cases: biochemical
Tyk2 = Tyk2 (Homo sapiens, UniProt P29597); test: JAK kinase inhibition assay (EZ Reader, peptide substrate phosphorylation) - Tyk2; settings: Tyk2 kinase 1 nM; 8 concentration points, max 10 μM
Procedure, shortened: (§1)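 Microfluidic mobility-shift detection of fluorescent peptide substrate phosphorylation, with JAK1 at 20 nM and JAK2, JAK3 and Tyk2 each at 1 nM final, in 20 mM HEPES pH 7.4, 10 mM MgCl2, 1 mM DTT. Reactions run at room temperature to 20–30% conversion, then EDTA-stopped. Compounds tested at 8 three-fold dilutions from 10 μM top final; IC50 from conversion curves.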

JAK1 = JAK1 (Homo sapiens, UniProt P23458); test: JAK kinase inhibition assay (EZ Reader, peptide substrate phosphorylation) - JAK1; settings: JAK1 kinase 20 nM; 8 concentration points, max 10 μM
Procedure, shortened: as §1

JAK2 = JAK2 (Homo sapiens, UniProt O60674); test: JAK kinase inhibition assay (EZ Reader, peptide substrate phosphorylation) - JAK2; settings: JAK2 kinase 1 nM; 8 concentration points, max 10 μM
From the text: (§2) Assay for Identifying Inhibitory Effects of Compounds on JAK Kinases
(§3) Janus kinases (JAK), including JAK1, JAK2, JAK3 and Tyk2, transduce a cytokine-mediated signal through a JAK-STAT pathway. The kinases are 120-140 kDa in size and have 7 determined homology regions: JH1 to JH7. JH1 is an important region for enzymatic activity and has typical characteristics of tyrosine kinases. Phosphorylation of tyrosine leads to a change in the conformation of JAK protein, thereby promoting binding of substrate. The JAK-STAT system includes three main parts: receptors penetrating a cell membrane, Janus kinases binding to the receptors, and signal transducers and activators of transcription (STAT) for transmitting signals to a nucleus and DNA. When cytokines bind to receptors, JAK phosphorylates the receptors and attracts STAT proteins. The STAT proteins are also phosphorylated and combined with one another to form dimers. The dimers enter the nucleus and bind to DNA, thereby leading to gene transcription.
(§4) EZ Reader from PerkinElmer can be used to detect the phosphorylation of polypeptide substrates catalyzed by kinases. The device is based on microfluidic techniques, and can directly detect fluorescently labeled substrates and products. The separation step is achieved by controlling the pressure and electric field strength in the microfluidic chip. In kinase assays, a product conversion ratio is usually controlled to be 20-30%. A biological test is used to identify inhibitory effects of compounds on JAKs.
(§5) Compound powder was dissolved in DMSO, sealed and stored in a freezer under −20° C. The in-house compound Ref1 was used as a positive control for JAK1, JAK2 and Tyk2 tests, and Ref2 was used as a positive control for JAK3 tests.
(§6) S2.8. Assay buffer: 20 mM HEPES buffer, pH 7.4, 10 mM magnesium chloride, 0.01% bovine serum albumin BSA, 0.0005% Tween-20 and 1 mM dithiothreitol solution.
(§7) S2.9. Stop buffer: 180 mM HEPES buffer, 20 mM ethylenediaminetetraacetic acid and 0.2% coating reagent 3.
(§8) S2.10. Separation buffer: 100 mM HEPES buffer, 10 mM ethylenediaminetetraacetic acid, 0.0005% Tween 20, 0.1% coating reagent 3 and 1% dimethyl sulfoxide.
The compound was dissolved in dimethyl sulfoxide and diluted to 10 mM concentration, a certain volume of solution was taken and diluted to 0.6 mM concentration, 10 μL of the 0.6 mM dilution was added to a 384-well microplate, and then was diluted 3-fold with a total of 8 concentration points.
Positive control (HPE1): Ref1, final concentration: 10 μM […]
(§9) Negative control (ZPE): DMSO, final content: 1.6%
(§10) Compounds: maximum final concentration: 10 μM; 3-fold dilution, 8 concentration points and 2 duplicates.
(§11) S4.1. 250 nL of the compound was added to each well of the assay microplate by using ECHO, and centrifuged at 1000 rpm for 1 minute.
(§12) S4.2. 5 μL of the assay buffer was added and agitated for a few seconds to fully dissolve the compound.
(§13) S4.3. 5 μL of 3× substrate solution and 5 μL of 3× kinase solution were added and centrifuged at 800 rpm for 1 minute.
(§14) S4.4. Final concentrations of JAK1, JAK2, JAK3 and Tyk2 kinases in the reaction system were 20 nM, 1 nM, 1 nM and 1 nM respectively.
(§15) S4.5. Incubation at room temperature, where kinases had time differences, and different batches of kinases had time differences.
(§16) S4.6. When 20%-30% of the reaction completed, 15 μL of stop buffer was added to stop the reaction, and centrifuged at 1000 rpm for 2 minutes.
(§17) S4.7. The microplates were placed on EZ Reader for reading.
(§18) S4.8. Readings on EZ Reader were calculated by using a peak height, where product conversion ratio (%)=product/(product+substrate)*100.
(§19) 5. Data Processing: IC50 calculation
(§20) A graphing software Xlfit was used to form a concentration curve of the test compound, and an IC50 value was calculated.
(§21) “A” means “≥10 μM”; “B” means “≥1 μM and <10 μM”; “C” means “≥0.1 μM and <1 μM”; and “D” means “<0.1 μM”.

JAK3 = target: T1, JAK3 (Homo sapiens, UniProt P52333); test: JAK kinase inhibition assay (EZ Reader, peptide substrate phosphorylation) - JAK3; settings: JAK3 kinase 1 nM; 8 concentration points, max 10 μM
T1 sequence (P52333 1-1124): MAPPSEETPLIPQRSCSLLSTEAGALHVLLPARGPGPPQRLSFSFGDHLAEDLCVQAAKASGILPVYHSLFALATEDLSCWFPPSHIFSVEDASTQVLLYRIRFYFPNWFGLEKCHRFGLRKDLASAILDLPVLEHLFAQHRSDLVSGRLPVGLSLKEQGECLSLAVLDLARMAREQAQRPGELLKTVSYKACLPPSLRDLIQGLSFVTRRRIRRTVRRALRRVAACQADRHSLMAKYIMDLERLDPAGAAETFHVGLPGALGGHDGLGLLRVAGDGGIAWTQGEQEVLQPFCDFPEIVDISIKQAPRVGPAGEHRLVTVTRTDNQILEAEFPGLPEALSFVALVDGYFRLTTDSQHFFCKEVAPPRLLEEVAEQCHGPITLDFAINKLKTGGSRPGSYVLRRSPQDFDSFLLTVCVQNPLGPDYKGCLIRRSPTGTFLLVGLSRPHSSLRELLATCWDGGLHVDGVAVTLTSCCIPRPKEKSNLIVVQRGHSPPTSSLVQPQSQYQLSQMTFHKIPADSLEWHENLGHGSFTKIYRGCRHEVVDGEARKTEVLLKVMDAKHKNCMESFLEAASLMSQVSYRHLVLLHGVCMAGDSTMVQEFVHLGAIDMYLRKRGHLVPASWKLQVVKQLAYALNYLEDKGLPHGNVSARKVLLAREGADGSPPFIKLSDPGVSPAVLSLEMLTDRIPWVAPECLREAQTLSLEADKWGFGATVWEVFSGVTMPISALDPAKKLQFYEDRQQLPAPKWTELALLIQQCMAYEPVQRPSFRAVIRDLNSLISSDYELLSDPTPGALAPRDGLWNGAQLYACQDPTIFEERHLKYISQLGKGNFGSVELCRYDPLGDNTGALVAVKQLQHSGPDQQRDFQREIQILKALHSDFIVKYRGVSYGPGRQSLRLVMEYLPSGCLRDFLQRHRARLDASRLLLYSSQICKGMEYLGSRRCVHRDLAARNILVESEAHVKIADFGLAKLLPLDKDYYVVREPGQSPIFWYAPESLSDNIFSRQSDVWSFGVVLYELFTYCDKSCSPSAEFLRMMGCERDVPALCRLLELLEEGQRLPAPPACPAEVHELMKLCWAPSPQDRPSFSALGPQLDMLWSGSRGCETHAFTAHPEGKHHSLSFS
From the text: as §2, §3, §4, §5, §6, §7, §8
The compound was dissolved in dimethyl sulfoxide and diluted to 10 mM concentration, a certain volume of solution was taken and diluted to 0.6 mM concentration, 10 μL of the 0.6 mM dilution was added to a 384-well microplate, and then was diluted 3-fold with a total of 8 concentration points. […]
Positive control (HPE1): Ref2, final concentration: 10 μM
as §9, §10, §11, §12, §13, §14, §15, §16, §17, §18, §19, §20, §21

Sequence of JAK1 (P23458 whole entry): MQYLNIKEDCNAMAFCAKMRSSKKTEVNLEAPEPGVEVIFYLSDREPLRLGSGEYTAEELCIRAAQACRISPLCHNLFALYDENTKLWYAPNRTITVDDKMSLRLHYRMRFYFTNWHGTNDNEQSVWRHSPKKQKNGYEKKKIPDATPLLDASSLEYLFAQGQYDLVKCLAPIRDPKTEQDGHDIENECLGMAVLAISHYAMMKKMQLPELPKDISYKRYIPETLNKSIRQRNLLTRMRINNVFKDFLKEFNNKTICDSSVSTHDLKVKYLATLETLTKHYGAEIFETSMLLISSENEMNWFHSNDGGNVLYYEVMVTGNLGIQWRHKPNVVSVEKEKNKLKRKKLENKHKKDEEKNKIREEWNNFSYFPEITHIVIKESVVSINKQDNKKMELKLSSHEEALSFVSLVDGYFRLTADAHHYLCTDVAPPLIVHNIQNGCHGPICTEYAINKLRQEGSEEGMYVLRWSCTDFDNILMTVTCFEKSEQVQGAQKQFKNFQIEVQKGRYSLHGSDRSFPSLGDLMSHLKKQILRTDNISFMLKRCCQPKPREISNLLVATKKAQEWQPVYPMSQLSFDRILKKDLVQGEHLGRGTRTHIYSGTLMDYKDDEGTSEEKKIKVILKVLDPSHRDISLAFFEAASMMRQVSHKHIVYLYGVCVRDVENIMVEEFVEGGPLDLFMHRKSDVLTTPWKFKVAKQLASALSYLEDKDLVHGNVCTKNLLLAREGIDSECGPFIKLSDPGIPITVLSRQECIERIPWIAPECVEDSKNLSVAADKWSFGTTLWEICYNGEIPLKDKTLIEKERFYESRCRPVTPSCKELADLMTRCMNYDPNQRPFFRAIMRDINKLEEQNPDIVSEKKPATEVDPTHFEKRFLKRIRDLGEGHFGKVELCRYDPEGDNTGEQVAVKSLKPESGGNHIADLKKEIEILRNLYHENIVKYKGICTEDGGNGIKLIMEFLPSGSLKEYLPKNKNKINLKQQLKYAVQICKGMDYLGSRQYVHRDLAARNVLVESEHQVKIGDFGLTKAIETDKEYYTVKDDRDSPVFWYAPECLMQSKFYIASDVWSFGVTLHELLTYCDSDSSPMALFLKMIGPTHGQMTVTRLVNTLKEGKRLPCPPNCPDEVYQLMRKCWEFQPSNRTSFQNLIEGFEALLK
Sequence of Tyk2 (P29597 whole entry): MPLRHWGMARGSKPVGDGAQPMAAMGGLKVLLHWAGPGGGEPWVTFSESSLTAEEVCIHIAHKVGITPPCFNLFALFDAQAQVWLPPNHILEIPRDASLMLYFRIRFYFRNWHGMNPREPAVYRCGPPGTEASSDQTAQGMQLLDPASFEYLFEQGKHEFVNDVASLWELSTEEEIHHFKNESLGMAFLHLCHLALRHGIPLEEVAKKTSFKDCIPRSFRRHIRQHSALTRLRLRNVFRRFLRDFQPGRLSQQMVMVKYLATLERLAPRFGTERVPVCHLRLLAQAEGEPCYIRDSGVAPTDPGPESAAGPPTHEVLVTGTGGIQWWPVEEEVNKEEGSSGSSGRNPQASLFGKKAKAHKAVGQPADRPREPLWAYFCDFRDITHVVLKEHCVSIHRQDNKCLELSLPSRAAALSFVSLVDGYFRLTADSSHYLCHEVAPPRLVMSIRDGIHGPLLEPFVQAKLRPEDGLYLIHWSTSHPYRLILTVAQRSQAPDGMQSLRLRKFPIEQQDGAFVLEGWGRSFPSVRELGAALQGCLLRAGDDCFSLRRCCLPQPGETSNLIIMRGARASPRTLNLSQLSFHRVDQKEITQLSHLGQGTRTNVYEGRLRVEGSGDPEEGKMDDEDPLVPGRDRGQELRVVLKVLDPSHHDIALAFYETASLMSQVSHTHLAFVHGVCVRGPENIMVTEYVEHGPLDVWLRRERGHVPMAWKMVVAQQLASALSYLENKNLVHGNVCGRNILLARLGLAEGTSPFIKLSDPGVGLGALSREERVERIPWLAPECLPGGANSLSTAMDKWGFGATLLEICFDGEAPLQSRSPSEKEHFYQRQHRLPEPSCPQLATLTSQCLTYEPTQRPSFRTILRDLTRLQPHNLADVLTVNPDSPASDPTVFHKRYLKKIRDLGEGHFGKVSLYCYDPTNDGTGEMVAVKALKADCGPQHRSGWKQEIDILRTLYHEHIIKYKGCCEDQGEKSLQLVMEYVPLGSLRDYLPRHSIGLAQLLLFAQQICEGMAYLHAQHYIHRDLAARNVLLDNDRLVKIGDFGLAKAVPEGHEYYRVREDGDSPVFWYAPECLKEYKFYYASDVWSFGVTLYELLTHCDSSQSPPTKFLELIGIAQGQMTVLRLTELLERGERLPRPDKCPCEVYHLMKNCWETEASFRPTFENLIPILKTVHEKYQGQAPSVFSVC
Sequence of JAK2 (O60674 whole entry): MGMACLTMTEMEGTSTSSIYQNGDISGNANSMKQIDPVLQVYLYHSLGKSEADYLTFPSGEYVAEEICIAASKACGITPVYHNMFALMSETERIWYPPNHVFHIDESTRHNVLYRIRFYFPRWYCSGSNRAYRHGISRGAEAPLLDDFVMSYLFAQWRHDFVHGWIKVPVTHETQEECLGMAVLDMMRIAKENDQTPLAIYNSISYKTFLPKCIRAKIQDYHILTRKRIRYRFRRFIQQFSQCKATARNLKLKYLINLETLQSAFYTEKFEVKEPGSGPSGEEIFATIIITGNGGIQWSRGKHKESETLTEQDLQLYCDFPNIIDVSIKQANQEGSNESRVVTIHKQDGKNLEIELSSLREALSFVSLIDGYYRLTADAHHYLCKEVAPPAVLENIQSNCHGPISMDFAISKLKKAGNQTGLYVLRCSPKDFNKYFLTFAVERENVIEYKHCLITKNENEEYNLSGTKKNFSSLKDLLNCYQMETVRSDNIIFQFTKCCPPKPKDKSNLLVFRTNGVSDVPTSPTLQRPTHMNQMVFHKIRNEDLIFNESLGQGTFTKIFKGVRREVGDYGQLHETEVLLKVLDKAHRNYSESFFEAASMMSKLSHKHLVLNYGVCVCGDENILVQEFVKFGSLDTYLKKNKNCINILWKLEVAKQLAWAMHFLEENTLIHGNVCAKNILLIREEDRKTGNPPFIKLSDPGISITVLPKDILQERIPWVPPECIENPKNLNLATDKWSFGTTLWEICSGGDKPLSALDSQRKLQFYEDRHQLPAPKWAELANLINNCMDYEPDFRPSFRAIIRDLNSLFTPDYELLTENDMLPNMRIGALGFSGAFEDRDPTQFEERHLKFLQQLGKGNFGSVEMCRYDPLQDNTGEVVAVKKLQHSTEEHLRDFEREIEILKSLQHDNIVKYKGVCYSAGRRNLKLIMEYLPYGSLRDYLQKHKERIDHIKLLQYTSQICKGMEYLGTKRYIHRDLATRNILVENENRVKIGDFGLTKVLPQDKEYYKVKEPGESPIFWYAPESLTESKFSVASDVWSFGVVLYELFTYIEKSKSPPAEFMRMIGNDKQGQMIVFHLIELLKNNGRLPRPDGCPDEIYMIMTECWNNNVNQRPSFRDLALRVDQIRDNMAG

Row | IC50 (Tyk2) [µM] | IC50 (JAK1) [µM] | IC50 (JAK2) [µM] | IC50 (JAK3) [µM] | Structure (SMILES)
1 | 0.1 to 1 | 0.1 to 1 | 0.1 to 1 | 1 to 10 | Cn1cc(Nc2nccc(-c3ccc(C(=O)NCC(F)(F)F)cc3)n2)cn1 [TDM-180748, 4-(2-((1-methyl-1H-pyrazol-4-yl)amino)pyrimidin-4-yl)-N-(2,2,2-trifluoroethyl)benzamide]
2 | 1 to 10 | 1 to 10 | 1 to 10 | ≥ 10 | Cn1cc(Nc2nccc(-c3ccc(C(=O)N4CCS(=O)(=O)CC4)cc3)n2)cn1 [TDM-180749]
3 | 0.1 to 1 | < 0.1 | < 0.1 | 1 to 10 | Cn1cc(Nc2nccc(-c3ccc(NC(=O)CC(F)(F)F)cc3)n2)cn1 [TDM-180754, 3,3,3-trifluoro-N-(4-(2-((1-methyl-1H-pyrazol-4-yl)amino)pyrimidin-4-yl)phenyl)propanamide]
4 | < 0.1 | < 0.1 | < 0.1 | 1 to 10 | Cn1cc(Nc2nccc(-c3ccc(NC(=O)C4CC4)cc3)n2)cn1 [TDM-180755, N-(4-(2-((1-methyl-1H-pyrazol-4-yl)amino)pyrimidin-4-yl)phenyl)cyclopropanecarboxamide]
5 | 0.1 to 1 | 0.1 to 1 | 0.1 to 1 | 1 to 10 | Cn1cc(Nc2nccc(-c3ccc(C(=O)NCC(F)(F)F)nc3)n2)cn1 [TDM-180756, 5-(2-((1-methyl-1H-pyrazole-4-yl)amino)pyrimidin-4-yl)-N-(2,2,2-trifluoroethyl)pyridinecarboxamide]
6 | < 0.1 | < 0.1 | < 0.1 | 0.1 to 1 | Cn1cc(Nc2nccc(-c3ccc(NC(=O)C4CC4(F)F)cc3)n2)cn1 (stereo not shown) [TDM-180757, 2,2-difluoro-N-(4-(2-((1-methyl-1H-pyrazol-4-yl)amino)pyrimidin-4-yl)phenyl)cyclopropane-1-carboxamide]
7 | 1 to 10 | 0.1 to 1 | 1 to 10 | 1 to 10 | Cn1cc(Nc2nccc(-c3ccc(C(=O)NC4CC4(F)F)cc3)n2)cn1 (stereo not shown) [TDM-180758, N-(2,2-difluorocyclopropyl)-4-(2-((1-methyl-1H-pyrazol-4-yl)amino)pyrimidin-4-yl)benzamide]
8 | 1 to 10 | 1 to 10 | 1 to 10 | ≥ 10 | COCC(=O)Nc1ccc(-c2ccnc(Nc3cnn(C)c3)n2)cc1 [TDM-180759, 2-methoxy-N-(4-(2-((1-methyl-1H-pyrazol-4-yl)amino)pyrimidin-4-yl)phenyl)acetamide]
9 | 0.1 to 1 | 0.1 to 1 | 1 to 10 | ≥ 10 | Cn1cc(Nc2nccc(-c3ccc(CNCC(F)(F)F)cc3)n2)cn1 [TDM-180760, N-(1-methyl-1H-pyrazol-4-yl)-4-(4-(((2,2,2-trifluoroethyl)amino)methyl)phenyl)pyrimidin-2-amine]
10 | 0.1 to 1 | 0.1 to 1 | 1 to 10 | ≥ 10 | Cn1cc(Nc2nccc(-c3ccc(CNCC#N)cc3)n2)cn1 [TDM-180761, 2-((4-(2-((1-methyl-1H-pyrazol-4-yl)amino)pyrimidin-4-yl)benzyl)amino)acetonitrile]
11 | 0.1 to 1 | 0.1 to 1 | 0.1 to 1 | 1 to 10 | Cn1cc(Nc2nccc(-c3ccc(C(=O)NCC#N)nc3)n2)cn1 [TDM-180762, N-(cyanomethyl)-5-(2-((1-methyl-1H-pyrazol-4-yl)amino)pyrimidin-4-yl)pyridinecarboxamide]
12 | 1 to 10 | 10 | 1 to 10 | ≥ 10 | Cn1cc(Nc2nccc(-c3ccc(-n4nccc4C4CC4)cc3)n2)cn1 [TDM-180763, 4-(4-(5-cyclopropyl-1H-pyrazol-1-yl)phenyl)-N-(1-methyl-1H-pyrazol-4-yl)pyrimidin-2-amine]
13 | ≥ 10 | 1 to 10 | – | – | Cn1cc(Nc2nccc(-c3ccc(NC(=O)CC4CC4)c4cc[nH]c34)n2)cn1 [TDM-180933]
14 | < 0.1 | < 0.1 | – | – | Cn1cc(Nc2nccc(-c3ccc(NC(=O)[C@@H]4CC4(F)F)cc3)n2)cn1 [TDM-180934]
15 | < 0.1 | < 0.1 | – | – | Cn1cc(Nc2nccc(-c3ccc(NC(=O)[C@@H]4CC4(F)F)nc3)n2)cn1 [TDM-180935, (S)-2,2-difluoro-N-(5-(2-((1-methyl-1H-pyrazol-4-yl)amino)pyrimidin-4-yl)pyridin-2-yl)cyclopropane-1-carboxamide]
16 | 0.1 to 1 | < 0.1 | – | – | Cn1cc(Nc2nccc(-c3ccc(NC(=O)[C@H]4CC4(F)F)cc3)n2)cn1 [TDM-180936, (R)-2,2-difluoro-N-(4-(2-((1-methyl-1H-pyrazol-4-yl)amino)pyrimidin-4-yl)phenyl)cyclopropane-1-carboxamide]
17 | 0.1 to 1 | < 0.1 | – | – | Cn1cc(Nc2nccc(-c3ccc(NC(=O)[C@H]4CC4(F)F)nc3)n2)cn1 [TDM-180939, (R)-2,2-difluoro-N-(5-(2-((1-methyl-1H-pyrazol-4-yl)amino)pyrimidin-4-yl)pyridin-2-yl)cyclopropane-1-carboxamide]
